The results in this text go back to US20260355184A1, “SMALL MOLECULE DEGRADERS OF HIV-1 TAT PROTEIN” (priority 2022, published 2026).

Where two headings read alike, the source gives them in different places.

In series [1] the test system is HIV NL4.3 strain. In words: HIV infectivity assay, reporter cell line HeLa-CD4-LTR-LacZ, β-Gal activity (Tat protein inhibition). It counts as cell-based, HIV-1 (NL4.3). Conditions: for IC50: Human immunodeficiency virus 1, read-out: Infectivity IC50, HeLa-CD4-LTR-LacZ. On the procedure: (§1) Next, the activity of these leads against HIV infection was evaluated using the reporter cell line HeLa-CD4-LTR-LacZ, which stably expresses the β-galactosidase (β-Gal) gene under the control of the HIV 5′ LTR. The HIV NL4.3 strain was used for these studies and β-Gal activity was measured 72 hrs post infection (FIG. 3A). Cytotoxicity assays using Cell-Titer-Glo were performed in parallel to assess cell viability (FIG. 3A). […] Their anti-HIV activity was further assessed in acute replication of Jurkat T cells with the NL4.3 strain (FIG. 3A). […] These OM10.1 cells contain a single integrated wild-type provirus, while ACH-2 cells contain a single integrated provirus with a TAR mutation C37T, defective Tat-TAR feedback loop (FIG. 3B).

Series [2] can be described thus: Cytotoxicity assay, Cell-Titer-Glo, HeLa-CD4-LTR-LacZ. The note with it: human, hela-cd4-ltr-lacz cells, Infectivity CC50, HeLa-CD4-LTR-LacZ. On the procedure: as §1

As usually defined, the IC50 is the point on the concentration scale where inhibition reaches its midpoint. A word on the CC50: it is the concentration that lowers cell viability or growth by half. Lower therefore signals harm at low concentration. For `O=C(NCCCN1CCCC1=O)c1nnc(-c2ccccc2)c2ccccc12` [compound 46934], in series [1] (analogs of TT-44881 (Table 1)), the IC50 was > 100 µM. Also, in series [2] (analogs of TT-44881 (Table 1)), the CC50 is > 100 µM.

Take `COc1ccccc1CNC(=O)Cn1cc(C(F)(F)F)cc(Cl)c1=O` [compound 46688]: in series [1] (analogs of TT-44863 (Table 2)), the IC50 was > 100 µM. The CC50 in series [2] (analogs of TT-44863 (Table 2)) was > 100 µM.

Turning to `CCCCN(CCCN1CCCC1=O)C(=O)c1nn(-c2ccccc2)c2c1CCC2` [GB-07], in series [1] (analogs of TT-44881 (Table 1)), the IC50 was 50 to 100 µM. This compound showed a CC50 in series [2] (analogs of TT-44881 (Table 1)) of 50 to 100 µM.

For `CC(C(=O)NCC1CCCNC1)(c1ccccc1)c1ccccc1` (stereo not drawn) [3-59], in series [1] (analogs of TT-44856 (Table 3)), the IC50 lay within 1 to 30 µM. The CC50 in series [2] (analogs of TT-44856 (Table 3)) was > 100 µM.

As for `COc1ccc(C#N)cc1NC(=O)Cn1cc(C(F)(F)F)cc(Cl)c1=O` [compound 46828], the IC50 in series [1] (analogs of TT-44863 (Table 2)) was in the range of 50 to 100 µM. The compound further displayed a CC50 in series [2] (analogs of TT-44863 (Table 2)) of 50 to 100 µM.

For the compound `CC(C(=O)NCCCN1CCNCC1)(c1ccccc1)c1ccccc1` [3-55], the IC50 in series [1] (analogs of TT-44856 (Table 3)) was > 100 µM. In series [2] (analogs of TT-44856 (Table 3)), the CC50 is > 100 µM.

With `O=C(NCCCN1CCCC1=O)c1nn(-c2ccccc2)c2ccc(F)cc12` [compound 46820], the IC50 in series [1] (analogs of TT-44881 (Table 1)) lay within 50 to 100 µM. In addition, the CC50 in series [2] (analogs of TT-44881 (Table 1)) is > 100 µM.

For `COc1ccc(C(F)(F)F)cc1NC(=O)Cn1cc(C(F)(F)F)ccc1=O` [compound 46917], the IC50 in series [1] (analogs of TT-44863 (Table 2)) lay within 1 to 30 µM. Moreover, the CC50 in series [2] (analogs of TT-44863 (Table 2)) is > 100 µM.

On to `CCC(C(=O)NCCCn1ccnc1)(c1ccccc1)c1ccccc1` [3-49], for which the IC50 in series [1] (analogs of TT-44856 (Table 3)) is 1 to 10 µM. Besides, in series [2] (analogs of TT-44856 (Table 3)), the CC50 was > 100 µM.

Turning to `COc1ccccc1CNC(=O)Cn1cccc(Cl)c1=O` [compound 46747], the IC50 in series [1] (analogs of TT-44863 (Table 2)) was > 100 µM. Also, the CC50 in series [2] (analogs of TT-44863 (Table 2)) is > 100 µM.

Consider `O=C(NCCCN1CCCC1=O)c1cn(-c2ccccc2)c2ccc(F)cc12` [compound 46880], for which, in series [1] (analogs of TT-44881 (Table 1)), the IC50 lay within 50 to 100 µM. In series [2] (analogs of TT-44881 (Table 1)), this compound gave a CC50 of 50 to 100 µM.

As for `Cc1cccc(-n2cc(C(=O)NCCCN3CCCC3=O)c3ccccc32)c1` [compound 46824], the IC50 in series [1] (analogs of TT-44881 (Table 1)) was > 100 µM. The CC50 in series [2] (analogs of TT-44881 (Table 1)) is > 100 µM.

Take `COc1ccc(C(F)(F)F)cc1NC(=O)CCn1cc(C(F)(F)F)cc(Cl)c1=O` [compound 47020]: in series [1] (analogs of TT-44863 (Table 2)), the IC50 is > 25 µM. For the same compound, the CC50 in series [2] (analogs of TT-44863 (Table 2)) is > 25 µM.

Consider `O=C(NCCCN1CCCC1=O)c1c(-c2ccccc2)[nH]c2ccccc2c1=O` [compound 46825], for which the IC50 in series [1] (analogs of TT-44881 (Table 1)) was > 100 µM. Moreover, the CC50 in series [2] (analogs of TT-44881 (Table 1)) is > 100 µM.

For `CC(C(=O)NCCc1ccccc1)(c1ccccc1)c1ccccc1` [3-46], the IC50 in series [1] (analogs of TT-44856 (Table 3)) was in the range of 50 to 100 µM. Moreover, the cytotoxic concentration (CC50) in series [2] (analogs of TT-44856 (Table 3)) fell in the range of 20 to 50 µM.

Consider `O=C(NCCCn1ccnc1)C(CCO)(c1ccccc1)c1ccccc1` [3-74], for which, in series [1] (analogs of TT-44856 (Table 3)), the IC50 was 1 to 20 µM. Moreover, the half-maximal cytotoxic concentration (CC50) in series [2] (analogs of TT-44856 (Table 3)) is > 100 µM.

Turning to `CCN(CCCN1CCCC1=O)C(=O)c1cc(C)n(-c2ccccc2)n1` [GB-16], in series [1] (analogs of TT-44881 (Table 1)), the IC50 was > 100 µM. Also, the CC50 in series [2] (analogs of TT-44881 (Table 1)) was > 100 µM.

In the case of `Cc1ccc(C(F)(F)F)cc1NC(=O)Cn1cc(C(F)(F)F)cc(Cl)c1=O` [compound 47001], the IC50 in series [1] (analogs of TT-44863 (Table 2)) is 1 to 10 µM. The CC50 in series [2] (analogs of TT-44863 (Table 2)) was > 100 µM.

Take `CC(C)N(CCCN1CCCC1=O)C(=O)c1nn(-c2ccccc2)c2c1CCC2` [GB-08]: the IC50 in series [1] (analogs of TT-44881 (Table 1)) lay within 30 to 50 µM. Moreover, in series [2] (analogs of TT-44881 (Table 1)), the CC50 was > 100 µM.

`COc1ccc(C(F)(F)F)cc1NC(=O)Cn1cc(C(F)(F)F)cc(Cl)c1=O` [TT-46600]: in series [1] (HeLa-CD4 cell NL4.3 infection assays), the “increase of potency vs TT-44863” value is ~ 5 fold. For the same compound, in series [1] (analogs of TT-44863 (Table 2)), the IC50 was 1 to 10 µM. Further, the CC50 in series [2] (analogs of TT-44863 (Table 2)) was > 100 µM.

Take `COc1ccc(C(F)(F)F)cc1NC(=O)Cn1cc(C(F)(F)F)cc(F)c1=O` [compound 47033]: in series [1] (analogs of TT-44863 (Table 2)), the IC50 lay in the range of 1 to 10 µM. In addition, the 50% cytotoxic concentration (CC50) in series [2] (analogs of TT-44863 (Table 2)) lay in the range of 50 to 100 µM.

With `COc1ccc(C(F)(F)F)cc1CNC(=O)Cn1cc(C(F)(F)F)cc(Cl)c1=O` [compound 46875], the IC50 in series [1] (analogs of TT-44863 (Table 2)) was > 100 µM. Also, the 50% cytotoxic concentration (CC50) in series [2] (analogs of TT-44863 (Table 2)) was > 100 µM.

With `COc1ccccc1CCNC(=O)C(C)(c1ccccc1)c1ccccc1` [3-43], the IC50 in series [1] (analogs of TT-44856 (Table 3)) fell in the range of 20 to 100 µM. In series [2] (analogs of TT-44856 (Table 3)), the CC50 lay in the range of 25 to 50 µM.

Consider `O=C(NCCCn1ccnc1)c1cc2cc(Cl)ccc2[nH]1` [3-41], for which the IC50 in series [1] (analogs of TT-44856 (Table 3)) is > 100 µM. Moreover, in series [2] (analogs of TT-44856 (Table 3)), the CC50 was > 100 µM.

Take `O=C(NCCCN1CCCC1=O)c1cn(-c2ccccc2)c2ccccc12` [compound 46878]: the IC50 in series [1] (analogs of TT-44881 (Table 1)) fell in the range of 50 to 100 µM. Besides, the CC50 in series [2] (analogs of TT-44881 (Table 1)) is > 100 µM.

For `COc1ccc(C(F)(F)F)cc1NC(=O)Cn1cc(C#N)cc(Cl)c1=O` [compound 47018], in series [1] (analogs of TT-44863 (Table 2)), the IC50 was > 50 µM. The CC50 in series [2] (analogs of TT-44863 (Table 2)) is > 50 µM.

Turning to `NC(C(=O)NCCCn1ccnc1)(c1ccccc1)c1ccccc1` [3-42], the half-inhibitory concentration (IC50) in series [1] (analogs of TT-44856 (Table 3)) was in the range of 10 to 30 µM. For the same compound, the CC50 in series [2] (analogs of TT-44856 (Table 3)) was > 100 µM.

With `COc1cc(NC(=O)Cn2cc(C(F)(F)F)cc(Cl)c2=O)cc(C(F)(F)F)c1` [compound 61], the IC50 in series [1] (analogs of TT-44863 (Table 2)) is > 100 µM. In addition, the CC50 in series [2] (analogs of TT-44863 (Table 2)) was > 100 µM.
